Laboratory results as given in the OPERA property sets (Mansouri et al. 2018).
In brackets after ≈: the same amount, converted by molar mass.

Structure (SMILES)	solubility (20 °C) [mM]	solubility (25 °C) [mM]	also measured
CC=CC(=O)Nc1ccc(O)cc1	2.26 (≈ 400 µg/mL)		
CCCCCCCCOC(=O)C(C)O (stereo not given)		53.4 (≈ 10800 µg/mL)	
O=CC(O)C(O)C(O)[C@H](O)C(O)CO (stereo in doubt)	476 (≈ 100000 µg/mL)		
NC(=O)c1cccc(S(N)(=O)=O)c1		6.99 (≈ 1400 µg/mL)	
OCC(O)C1OC(Oc2ccccc2)C(O)C(O)C1O (stereo not given)	27.9 (≈ 8000 µg/mL)		
CCCCCCCCOC(=O)c1cc(O)c(O)c(O)c1	0.127 (≈ 36 µg/mL)		
COC(=O)CNC(=O)c1ccccc1			solubility (30 °C): 88 mM (≈ 17000 µg/mL)
CC(N)C(O)C(=O)O (stereo not given)		443 (≈ 52800 µg/mL)	
Oc1cncc2cccnc12	22 (≈ 3220 µg/mL)		
CCOC(=O)c1c(C(=O)O)ccc(OC)c1OC			solubility: 5.58 mM (≈ 1420 µg/mL)
Nc1ncnc2c1ncn2[C@@H]1O[C@H](COP(=O)(O)O)[C@@H](O)[C@H]1O	28.8 (≈ 10000 µg/mL)		
CC(Cl)C(C)(C)O (stereo not given)		510 (≈ 62500 µg/mL)	
Cc1snnc1C(=O)O	347 (≈ 50000 µg/mL)		
NC(=O)C(Br)(Br)Br	54.1 (≈ 16000 µg/mL)		
CCc1ccccc1NC(C)=O			solubility (30 °C): 25.7 mM (≈ 4190 µg/mL)
CC1NC(C)SC(C)S1 (stereo not given)	42.9 (≈ 7000 µg/mL)		
Cc1c2c(cc3c1ccc1ccccc13)CCCC2			solubility (27 °C): 0.000179 mM (≈ 0.044 µg/mL)
Cc1c(Cl)c(O)c(Cl)c(Cl)c1Cl		0.025 (≈ 6.15 µg/mL)	
CCOP(=O)(OCC)C(Cl)(Cl)Cl		17.6 (≈ 4500 µg/mL)	
C[Si](C)(C)CCN		15.6 (≈ 1830 µg/mL)	

Structure (SMILES)	solubility (20 °C) [mM]	solubility (25 °C) [mM]	also measured
O=C1CCCCCCCCCCCCCCCCCN1			solubility (22 °C): 1.42 mM (≈ 400 µg/mL)
O=C(O)c1cccs1		58.5 (≈ 7500 µg/mL)	
CC1(C)CC(C(=O)O)C(C)(C)N1 (stereo not given)			solubility: 2920 mM (≈ 500000 µg/mL)
NC(=S)NNC(N)=S			solubility (23 °C): 16 mM (≈ 2400 µg/mL)
CNCl			solubility: 1910 mM (≈ 125000 µg/mL)
O=C(c1ccco1)N(O)c1ccccc1			solubility: 0.64 mM (≈ 130 µg/mL)
C[Si](C)(C)CCCN		11.2 (≈ 1470 µg/mL)	
CCCC(=O)NCCNC(=O)CCC		239 (≈ 47800 µg/mL)	
NNC(=O)CC(=O)NN		757 (≈ 100000 µg/mL)	
O=C(O)C1=CCCCC1	55.5 (≈ 7000 µg/mL)		
COC(=O)c1ccc([N+](=O)[O-])cc1C(=O)O	8.79 (≈ 1980 µg/mL)		
CCCCS(=O)(=O)C(S(=O)(=O)CCCC)S(=O)(=O)CCCC		1.06 (≈ 400 µg/mL)	
CCOC(=O)c1ccc(O)c(Cl)c1			solubility (30 °C): 0.598 mM (≈ 120 µg/mL)
C[C@](N)(C(=O)O)c1ccccc1			solubility (22 °C): 291 mM (≈ 48000 µg/mL)
COC(=O)c1ccc(O)c(Cl)c1			solubility (30 °C): 1.34 mM (≈ 250 µg/mL)
CCN(CC)CN(CC)CC			solubility: 632 mM (≈ 100000 µg/mL)
COc1ccc(C(=O)O)cc1C(=O)O	0.765 (≈ 150 µg/mL)		
O=C(O)COc1ccc([N+](=O)[O-])cc1[N+](=O)[O-]			solubility (21 °C): 11.6 mM (≈ 2800 µg/mL)
Cc1ncnc2c(O)cccc12	2.5 (≈ 400 µg/mL)		
O=[N+]([O-])Cc1ccc2ccccc2n1	8.82 (≈ 1660 µg/mL)		

Structure (SMILES)	solubility (20 °C) [mM]	solubility (25 °C) [mM]	also measured
O=C(O)C(Br)=C(Br)Br	43.7 (≈ 13500 µg/mL)		
O=C(O)Cc1ccccc1C(=O)O	88.8 (≈ 16000 µg/mL)		
CC(=O)Nc1ccc(F)cc1C	43.7 (≈ 7310 µg/mL)		
CCCC(=O)N(C)N=O		29.2 (≈ 3800 µg/mL)	
NS(=O)(=O)c1ccc(S(N)(=O)=O)cc1		2.96 (≈ 700 µg/mL)	
S=c1nc[nH]c2nccnc12	2.25 (≈ 370 µg/mL)		
CCOP(=O)(OCC)OCC(C)C		66.6 (≈ 14000 µg/mL)	
Cc1ncnc2nc[nH]c12	1490 (≈ 200000 µg/mL)		
NNC(=O)c1cccnc1	729 (≈ 100000 µg/mL)		
CC(C)C=CCC(=O)O			solubility: 71 mM (≈ 9100 µg/mL)
Nc1ccc2c(c1)C(=O)OC2		9.09 (≈ 1360 µg/mL)	
O=C(O)c1ccccc1C1OC(=O)c2ccccc21 (stereo not given)			solubility (23 °C): 0.787 mM (≈ 200 µg/mL)
O=S(=O)(O)c1cnc[nH]1			solubility: 1350 mM (≈ 200000 µg/mL)
CC(C)COC(=O)c1c(C(=O)O)cccc1[N+](=O)[O-]	0.898 (≈ 240 µg/mL)		
CCN[C@@H](C)C(=O)O (racemic)		4490 (≈ 526000 µg/mL)	
CCCCOP(=O)(CCCC)CCCC		19.2 (≈ 4500 µg/mL)	
O=C(O)CCC[Se][Se]CCCC(=O)O		5.66 (≈ 1880 µg/mL)	
CCCCOC(=O)c1c(C(=O)O)cccc1[N+](=O)[O-]	1.91 (≈ 510 µg/mL)		
Cc1nnc(N)nc1C		80.6 (≈ 10000 µg/mL)	
O=[N+]([O-])CCl			solubility: 524 mM (≈ 50000 µg/mL)
